Laboratory results: US20250072421A1, “ARYL DIHYDROPYRAN DERIVATIVE OR SALT THEREOF, PEST CONTROL AGENT CONTAINING SAME, AND METHOD FOR USE THEREOF” (ADEKA Corporation, priority 2021, published 2025)

Key:
[1] = tested on: Plutella xylostella; assay: Insecticidal test against Plutella xylostella; settings: 500 ppm drug solution, Chinese cabbage seedlings with eggs immersed about 30 sec, six days after immersion, 25° C.
[2] = tested on: Laodelphax striatellus; assay: Insecticidal test against Laodelphax striatellus; settings: 500 ppm drug solution, rice seedlings immersed 30 seconds, three-instar insects, eight days after inoculation
[3] = tested on: Frankliniella occidentalis; assay: Insecticidal test against Frankliniella occidentalis; settings: 500 ppm drug solution sprayed on Phaseolus vulgaris leaf pieces with hatched larvae, four days after treatment
[4] = tested on: Dirofilaria immitis; assay: Influence evaluation test on the growth of Dirofilaria immitis; format: cell-based; settings: 168 h, read-out: development inhibition rate from the L3 stage larva to the L4-stage larva

Structure (SMILES) | rating of assessment (corrected mortality) against Plutella xylostella [1] | further results
O=C(Nc1ccc(F)cc1)C1=C(O)CC(c2cc(-c3ccccc3)no2)OC1=O (centres unmarked) [1-78] | D or higher | 
C[S+]([O-])c1ccc(C2CC(O)=C(C(=O)Nc3ccc(F)cc3)C(=O)O2)cc1 (centres unmarked) [1-84] | D or higher | 
COc1ccc(NC(=S)C2=C(O)CC(c3ccc(C(F)(F)F)cc3)OC2=O)cc1 (centres unmarked) [1-31] | D or higher | 
O=C(Nc1cccs1)C1=C(O)CC(c2ccc(C(F)(F)F)cc2)OC1=O (centres unmarked) [1-7] | D or higher | 
O=C(Nc1ccc(F)cc1)C1=C(O)CC(c2ccc(Cl)nc2)OC1=O (centres unmarked) [1-75] | D or higher | rating of assessment (corrected mortality) against Laodelphax striatellus [2]: D or higher; rating of assessment (corrected mortality) against Frankliniella occidentalis [3]: D or higher
O=C(Nc1ccc(F)cc1)C1=C(O)CC(c2ccc(SC(F)(F)F)cc2)OC1=O (centres unmarked) [1-135] | D or higher | 
O=C(NC1CC1)C1=C(O)CC(c2ccc(C(F)(F)F)cc2)OC1=O (centres unmarked) [1-74] | D or higher | 
N#Cc1ccc(C2CC(O)=C(C(=O)Nc3ccc(F)cc3)C(=O)O2)cc1 (centres unmarked) [1-97] | D or higher | 
O=C(Nc1ccccc1)C1=C(O)CC(c2ccc(C(F)(F)F)cc2)OC1=O (centres unmarked) [1-6] | D or higher | 
CC1(C)C(O)=C(C(=S)Nc2ccc(F)cc2)C(=O)OC1c1ccc(C(F)(F)F)cc1 (centres unmarked) [1-67] | D or higher | 
O=C(Nc1ccc(F)cc1)C1=C(O)CC(c2ccc(C(F)(F)F)nc2)OC1=O (centres unmarked) [1-21] | D or higher | rating of assessment (corrected mortality) against Laodelphax striatellus [2]: D or higher; rating of assessment (corrected mortality) against Frankliniella occidentalis [3]: D or higher
CC1(C)C(O)=C(C(=S)Nc2ccc(F)cn2)C(=O)OC1c1ccc(C(F)(F)F)cc1 (centres unmarked) [1-71] |  | rating of assessment (corrected mortality) against Laodelphax striatellus [2]: D or higher
O=C(Nc1ccc(F)cc1)C1=C(O)CC(c2ccc(OC(F)(F)F)cc2)OC1=O (centres unmarked) [1-86] | D or higher | 
O=C(Nc1ccc(F)cn1)C1=C(O)CC(c2ccc(C(F)(F)F)cc2)OC1=O (centres unmarked) [1-77] | D or higher | rating of assessment (corrected mortality) against Frankliniella occidentalis [3]: D or higher
COc1ccccc1C1CC(O)=C(C(=O)Nc2ccc(F)cc2)C(=O)O1 (centres unmarked) [1-131] | D or higher | 
O=C(Nc1ccc(Oc2ccccc2)cc1)C1=C(O)CC(c2ccc(C(F)(F)F)cc2)OC1=O (centres unmarked) [1-14] | D or higher | 
O=C(Nc1ccc(F)cc1)C1=C(O)CC(c2ccc(C(F)(F)F)c(Cl)c2)OC1=O (centres unmarked) [1-1, 6-(3-chloro-4-(trifluoromethyl)phenyl)-N-(4-fluorophenyl)-4-hydroxy-2-oxo-5,6-dihydro-2H-pyran-3-carboxamide] | D or higher | inhibition at 10 µM [4]: ≥ 50%
O=C1OC(c2ccc(C(F)(F)F)cc2)C2(CCCCC2)C(O)=C1C(=S)Nc1ccc(F)cc1 (centres unmarked) [1-68, N-(4-fluorophenyl)-5-hydroxy-3-oxo-1-(4-(trifluoromethyl)phenyl)-2-oxaspiro[5.5]undec-4-en-4-carbothioamide] |  | inhibition at 10 µM [4]: ≥ 50%
O=C(Nc1ccc(F)cc1)C1=C(O)CC(c2ccc3c(c2)OCO3)OC1=O (centres unmarked) [1-103] | D or higher | 
CS(=O)(=O)c1ccc(C2CC(O)=C(C(=O)Nc3ccc(F)cc3)C(=O)O2)cc1 (centres unmarked) [1-85] | D or higher | 
O=C(Nc1ccc(Cl)cc1)C1=C(O)CC(c2ccc(C(F)(F)F)cc2)OC1=O (centres unmarked) [1-5] | D or higher | 
O=C(Nc1ccc(F)cn1)C1=C(O)CC(c2ccc(C(F)(F)F)nc2)OC1=O (centres unmarked) [1-76] | D or higher | rating of assessment (corrected mortality) against Laodelphax striatellus [2]: D or higher
Cc1ccc(NC(=O)C2=C(O)CC(c3ccc(C(F)(F)F)cc3)OC2=O)cc1 (centres unmarked) [1-73] | D or higher | 
CSc1ccc(C2CC(O)=C(C(=O)Nc3ccc(F)cc3)C(=O)O2)cc1 (centres unmarked) [1-83] | D or higher | 
O=C(Nc1ccc2c(c1)OCO2)C1=C(O)CC(c2ccc(C(F)(F)F)cc2)OC1=O (centres unmarked) [1-15] | D or higher | 
CC1(C)C(O)=C(C(=O)Nc2ccc(F)cc2)C(=O)OC1c1ccc(C(F)(F)F)cc1 (centres unmarked) [1-22] | D or higher | 
COc1ccccc1C1CC(O)=C(C(=O)Nc2ccc(SC(F)(F)F)cc2)C(=O)O1 (centres unmarked) [1-132] | D or higher | 
O=C(Nc1ccc(F)cc1)C1=C(O)CC(c2ccc([N+](=O)[O-])cc2)OC1=O (centres unmarked) [1-107] | D or higher | 
